Patent publication US20190298740A1, “METHODS AND COMPOSITIONS FOR TREATING HALLUCINATIONS AND CONDITIONS RELATED TO THE SAME” (Enterin, Inc., priority 2018, published 2019)
Where “and” joins values, the source holds several entries; their conditions need not be identical. Identical values can stand only once.

Tested on: patients with PD and constipation
Assay: Bowel function (prokinetic response, stool diary indices), Phase 2 trial
Format: in vivo, human
Details: for Cumulative prokinetic response rate (CSBM within 24 hours of dosing): Stage 1, single dose; for Prokinetic response rate (CSBM within 24 hours of dosing on at least 2 of 3 days): Stage 2, daily dosing; for CSBM, weekly average: baseline 1.2 (0.90); for PAC-SYM: baseline 1.3 (0.45); for SBM, weekly average: baseline 2.6 (1.45)
Experimental: Following successful screening, all subjects underwent a 14-day run-in period where the degree of constipation was assessed through a validated daily log (Zinsmeister et al. 2013) establishing baseline CSBMs/week. Subjects with an average of <3 CSBMs/week proceeded to dosing.
Tolerability limits included diarrhea or vomiting.
In Stage 2, 34 patients were evaluated.
The primary efficacy outcome variable was whether or not a subject was a “success” or “failure”. This is an endpoint based on subject diary entries for the “fixed dose” period prior to the endpoint assessment defined as average complete stool frequency increase by 1 or more over baseline, or 3 or more complete spontaneous stools/week. The subject was deemed a “success” if s/he met one or more of the criteria listed above, otherwise the subject was deemed a “failure”. The primary analysis was based on all subjects with a baseline assessment and an assessment at the end of the “fixed-dose” period and was a comparison of the proportion of successes with 0.10 (the null hypothesis corresponding to no treatment effect).

[1] = Stage 2, n = 34, fixed dose, mean (SD)

## CC(C)[C@@H](CC[C@@H](C)[C@H]1CC[C@H]2[C@@H]3[C@H](O)C[C@H]4C[C@@H](NCCCNCCCCN)CC[C@]4(C)[C@H]3CC[C@]12C)OS(=O)(=O)O (single isomer, unassigned) [squalamine (ENT-01)]
75 mg to 250 mg
  Patients responding within the effective dose range: 85%
25 mg
  Cumulative prokinetic response rate (CSBM within 24 hours of dosing): 25%
200 mg (maximum)
  Cumulative prokinetic response rate (CSBM within 24 hours of dosing): 80%
Stage 2
  Median efficacious dose: 100 mg
75 mg
  Prokinetic response rate (CSBM within 24 hours of dosing on at least 2 of 3 days): 26%
250 mg
  Prokinetic response rate (CSBM within 24 hours of dosing on at least 2 of 3 days): 85.3%
[1]
  CSBM, weekly average: 3.8 /week and 3.8 (2.4) /week
  PAC-SYM: 1.1 (0.49)
  SBM, weekly average: 4.5 /week
Stage 2, n = 34, fixed dose, mean (SD), baseline 1.8 (1.92)
  Suppository use / rescue medication, weekly average: 0.3 /week
Stage 2, wash-out, mean (SD)
  CSBM, weekly average: 1.8 (1.19) /week
  PAC-SYM: 1.1 (0.60)
  SBM, weekly average: 3.2 (1.80) /week
Stage 2, wash-out, mean (SD), baseline 1.4 (0.49)
  PAC-QOL: 1.2 (0.63)
Stage 2, wash-out, mean (SD), baseline 1.8 (1.92)
  Rescue meds, weekly average: 1.0 (1.40) /week
Stage 2, wash-out, mean (SD), baseline 2.7 (1.20)
  Stool consistency (Bristol stool scale 1-7): 2.8 (1.39)
Stage 2, wash-out, mean (SD), baseline 3.2 (0.73)
  Ease of passage (Ease of evacuation scale 1-7): 3.3 (0.81)
Group later randomized to placebo (n = 9), fixed dose period on drug, baseline 1.6
  CSBM frequency, randomized cohort: 3.3 CSBM/week
Group randomized to treatment (n = 6), fixed dose period, baseline 0.8
  CSBM frequency, randomized cohort: 3.2 CSBM/week
Group randomized to treatment (n = 6), randomized period 4-6 days, baseline 0.8
  CSBM frequency, randomized cohort: 2.4 CSBM/week
Group randomized to treatment (n = 6), washout, baseline 0.8
  CSBM frequency, randomized cohort: 0.9 CSBM/week
Patients with baseline constipation of <1 CSBM/week
  Mean dose required for a bowel response: 192 mg
Patients with baseline ≥1 CSBM/week
  Mean dose required for a bowel response: 120 mg
